Assay results from patent US11162944B2, “Compositions and methods” (priority 2015, dated 2021).
Like-named read-outs stand apart in the source and are kept apart here. Marks after values point to notes of the source that are not given here.

Tested on: biomarker (antibody) in serum samples from patients with symptoms of tuberculosis
Type: binding, human

CCCCCCCCCCCCCCCCCCCCCC[C@@H](C(=O)OC[C@H]1O[C@H](OC)[C@@H](O)[C@@H]1O)[C@H](O)CCCCCCCCCCCCCCCCC[C@H]1C[C@H]1CCCCCCCCCCCCCCCC[C@@H](OC)[C@@H](C)CCCCCCCCCCCCCCCCCC [Antigen E]
ELISA absorbance at 492 nm (serum sample 1 TB+): 0.42* | ELISA absorbance at 492 nm (serum sample 2 TB+): 0.36* | ELISA absorbance at 492 nm (serum sample 3 TB+): 0.77* | ELISA absorbance at 492 nm (serum sample 4 TB+): 0.90* | ELISA absorbance at 492 nm (serum sample 5 TB+): 0.38* | ELISA absorbance at 492 nm (serum sample 6 TB+): 0.54* | ELISA absorbance at 492 nm (serum sample 7 TB+): 1.15* | ELISA absorbance at 492 nm (serum sample 8 TB+): 0.69* | ELISA absorbance at 492 nm (serum sample 9 TB+): 0.56* | ELISA absorbance at 492 nm (serum sample 10 TB−): 0.35 | ELISA absorbance at 492 nm (serum sample 11 TB−): 0.45* | ELISA absorbance at 492 nm (serum sample 12 TB−): 0.29 | ELISA absorbance at 492 nm (serum sample 13 TB−): 0.34 | ELISA absorbance at 492 nm (serum sample 14 TB−): 0.58* | ELISA absorbance at 492 nm (serum sample 15 TB−): 0.37* | ELISA absorbance at 492 nm (serum sample 16 TB−): 0.42* | ELISA absorbance at 492 nm (serum sample 17 TB−): 0.47* | ELISA absorbance at 492 nm (serum sample 18 TB−): 0.25 | ELISA absorbance at 492 nm (serum sample 19 TB−): 0.31 | ELISA absorbance at 492 nm (serum sample 20 TB−): 0.38* | ELISA absorbance at 492 nm (serum sample 21 TB−): 0.35 | ELISA absorbance at 492 nm (serum sample 22 TB−): 0.24 | ELISA absorbance at 492 nm (serum sample 23 TB−): 0.35* | ELISA absorbance at 492 nm (serum sample 24 TB−): 0.26 | ELISA absorbance at 492 nm (serum sample 25 TB−): 0.18 | ELISA absorbance at 492 nm (serum sample 26 TB−): 0.24 | ELISA absorbance at 492 nm (serum sample 27 TB−): 0.33 | ELISA absorbance at 492 nm (serum sample 28 TB−): 0.23 | ELISA absorbance at 492 nm (serum sample 29 TB−): 0.29 | ELISA absorbance at 492 nm (serum sample 30 TB−): 0.24 | ELISA absorbance at 492 nm (serum sample 31 TB−): 0.30 | ELISA absorbance at 492 nm (serum sample 32 TB−): 0.57* | ELISA absorbance at 492 nm (serum sample 33 TB−): 0.46* | ELISA absorbance at 492 nm (serum sample 34 TB−): 0.51* | ELISA absorbance at 492 nm (serum sample 35 TB−): 0.26 | ELISA absorbance at 492 nm (serum sample 36 TB−): 0.23 | ELISA absorbance at 492 nm (serum sample 37 TB−): 0.41* | ELISA absorbance at 492 nm (serum sample 38 TB−): 0.40* | ELISA absorbance at 492 nm (serum sample 39 TB−): 0.31 | ELISA absorbance at 492 nm (serum sample 40 TB−): 0.25 | ELISA absorbance at 492 nm (serum sample 41 TB−): 0.33 | ELISA absorbance at 492 nm (serum sample 42 TB−): 0.42* | ELISA absorbance at 492 nm (serum sample 43 TB−): 0.29 | ELISA absorbance at 492 nm (serum sample 44 TB−): 0.67* | ELISA absorbance at 492 nm (serum sample 45 TB−): 0.35* | ELISA absorbance at 492 nm (serum sample 46 TB−): 0.26 | ELISA absorbance at 492 nm (serum sample 47 TB−): 0.41* | ELISA absorbance at 492 nm (serum sample 48 TB−): 0.17 | ELISA absorbance at 492 nm (serum sample 49 TB−): 0.25 | ELISA absorbance at 492 nm (serum sample 50 TB−): 0.30 | ELISA absorbance at 492 nm (serum sample 51 TB−): 0.18 | ELISA absorbance at 492 nm (serum sample 52 TB−): 0.26 | ELISA absorbance at 492 nm (serum sample 53 TB−): 0.25 | ELISA absorbance at 492 nm (serum sample 54 TB−): 0.20 | ELISA absorbance at 492 nm (serum sample 55 TB−): 0.22 | ELISA absorbance at 492 nm (serum sample 56 TB−): 0.31 | ELISA absorbance at 492 nm (serum sample 57 TB−): 0.29 | ELISA absorbance at 492 nm (serum sample 58 TB−): 0.28 | ELISA absorbance at 492 nm (serum sample 59 TB−): 0.25 | ELISA absorbance at 492 nm (serum sample 60 TB−): 0.29 | ELISA absorbance at 492 nm (serum sample 61 TB−): 0.34 | ELISA absorbance at 492 nm (serum sample 62 TB−): 0.35* | ELISA absorbance at 492 nm (serum sample 63 TB−): 0.22 | ELISA absorbance at 492 nm (serum sample 64 TB−): 3.98*
